26 molecules from US20060116407A1, “Amide derivatives” (priority 2004, published 2006) can be followed below.

The assay concerns HEK293 cells. The experiment in a line: Viability assay of HEK293 cells (CellTiter-Glo). It counts as cell-based. The note with it: Homo sapiens, 168 h, 7 days, 3 μM to 0.00015 μM, luminescence. The procedure: Viability Assay of HEK293 Cells
A viability assay was performed using the CellTiter-Glo™ Luminescent Cell Viability Assay (see Promega Corporation's Technical Publication No. 288, pp. 1-11 [revised 2.04] which is hereby incorporated by reference in its entirety). This assay is a homogeneous method of determining the number of viable cells in culture based on quantitation of the ATP present, which signals the presence of metabolically active cells. The assay is designed for use with multiwell formats, making it ideal for automated high-throughput screening (HTS), cell proliferation and cytotoxicity assays. The homogeneous assay procedure involves adding a single reagent (containing luciferase, luciferan substrate, and buffer) directly to cells cultured in serum-supplemented medium. Cell washing, removal of medium and multiple pipetting steps are not required. The system detects as few as 15 cells/well in a 384-well format in 10 minutes after adding reagent and mixing.
The homogeneous “add-mix-measure” format results in cell lysis and generation of a luminescent signal proportional to the amount of ATP present. The amount of ATP is directly proportional to the number of cells present in culture. The above-referenced assay generates a “glow-type” luminescent signal, produced by the luciferase reaction, which has a half-life generally greater than five hours, depending on cell type and medium used. The extended half-life eliminates the need to use reagent injectors and provides flexibility for continuous or batch mode processing of multiple plates. The unique homogeneous format avoids errors that may be introduced by other ATP measurement methods that require multiple steps.
HEK293 cells (human embryonic kidney cell line transformed by Adenovirus 5 fragments, ATCC-No. CRL 1573) were cultivated in Dulbecco's Modified Eagle Medium (DMEM) (1×) liquid (high glucose) (which includes L-Alanyl-L-Glutamine [a stabilized a form of L-Glutamine], 4500 mg/L glucose, and 110 mg/L sodium pyruvate) from Invitrogen Corporation (Invitrogen Catalog Number 31966-021 [now 10569-010] which is hereby incorporated by reference in its entirety), 5% Fetal Calf Serum (FCS, Sigma Cat-No. F4135 (FBS) which is hereby incorporated by reference in its entirety), and 100 Units/ml penicillin/100 μg/ml streptomycin(=Pen/Strep from Invitrogen Cat. No. 15140 which is hereby incorporated by reference in its entirety). For the assay the cells were seeded in 384 well plates, 5000 cells per well, in the same medium. The next day the test compounds were added in various concentrations ranging from 3 μM to 0.00015 μM (10 concentrations, 1:3 diluted). After 7 days the above viability assay was performed in accordance with the following steps: • Step 1: The cell-plate was equilibrated to room temperature for approximately 30 minutes and than the assay reagent was added. • Step 2: The contents were carefully mixed for 15 minutes to induce cell lysis. • Step 3: After 45 minutes the luminescent signal was measured in Victor 2, (scanning multiwell spectrophotometer, Wallac). Details: 1st Day: • Medium: Dulbecco's Modified Eagle Medium (DMEM) (1×) liquid (high glucose) (which includes L-Alanyl-L-Glutamine [a stabilized a form/source of L-Glutamine], 4500 mg/L glucose, and 110 mg/L sodium pyruvate) from Invitrogen Corporation (Invitrogen Catalog Number 31966-021 [now 10569-010]), 5% Fetal Calf Serum (FCS, Sigma Cat-No. F4135 (FBS)), and Pen/Strep (Invitrogen Cat. No. 15140). • HEK293 (ATCC-No. CRL 1573): 5000 cells in 60 μl per well of 384 well plate. (Greiner 781098, white plates) • Incubate 24 h at 37° C., 5% CO2 2nd Day: Induction (Substance Testing):
In general the dilution steeps are 1:3 a) Add 8 μl of 10 mM stock solution of compound to 72 μl DMSO b) dilute 9×1:3 (always 30 μl to 60 μl DMSO) in this DMSO dilution row (results in 10 wells with concentrations from 1000 μM to 0.06 μM) c) dilute each concentration 1: 4.8 (10 μl compound dilution to 38 μl medium) […]
(ATP-based viability assays read luminescence as a measure of living cells.)
The IC50 is the concentration that gives 50% inhibition. High values mean a need for much substance, low ones inhibition by little substance. For `O=C(Nc1nc(COc2ccc(CCCCn3ccnn3)cc2)cs1)c1ccc(Cl)c(Cl)c1` [Example 52-9, 3,4-Dichloro-N-{4-[4-(4-[1,2,3]triazol-1-yl-butyl)-phenoxymethyl]-thiazol-2-yl}-benzamide], the IC50 fell in the range of 5 to 500 nM. Under `O=C(Nc1ccc(F)c(Cl)c1)c1coc(COc2ccc(CCCCn3ccnn3)cc2)n1` [Example 12, 2-[4-(4-[1,2,3]Triazol-1-yl-butyl)-phenoxymethyl]-oxazole-4-carboxylic acid (3-chloro-4-fluoro-phenyl)-amide] stands 5 to 500 nM; under `CSc1ccc(NC(=O)c2coc(COc3ccc(CCCCn4ccnn4)cc3)n2)cc1` [Example 24, 2-[4-(4-[1,2,3]Triazol-1-yl-butyl)-phenoxymethyl]-oxazole-4-carboxylic acid (4-methylsulfanyl-phenyl)-amide], 1060 nM. Under `CN(C(=O)c1coc(COc2ccc(CCCCn3ccnn3)cc2)n1)c1ccc(OC(F)(F)F)cc1` [Example 30, 2-[4-(4-[1,2,3]Triazol-1-yl-butyl)-phenoxymethyl]-oxazole-4-carboxylic acid methyl-(4-trifluoromethoxy-phenyl)-amide] stands 5 to 500 nM; under `O=C(Nc1nc(COc2ccc(CCCCn3ccnn3)cc2)cs1)c1cccc(Cl)c1` [Example 52-12, 3-Chloro-N-{4-[4-(4-[1,2,3]triazol-1-yl-butyl)-phenoxymethyl]-thiazol-2-yl}-benzamide], 5 to 500 nM; under `O=C(Nc1nc(COc2ccc(CCCCn3ccnn3)cc2)cs1)c1cccc(F)c1` [Example 52-25, 3-Fluoro-N-{4-[4-(4-[1,2,3]triazol-1-yl-butyl)-phenoxymethyl]-thiazol-2-yl}-benzamide], 5 to 500 nM. Under `Cc1cc(OCc2nc(C(=O)Nc3cccc(Cl)c3)cs2)ccc1CCCCn1ccnn1` [Example 51, 2-[3-Methyl-4-(4-[1,2,3]triazol-1-yl-butyl)-phenoxymethyl]-thiazole-4-carboxylic acid (3-chloro-phenyl)-amide] stands 5 to 500 nM; under `Cc1c(F)cccc1NC(=O)c1coc(COc2ccc(CCCCn3ccnn3)cc2)n1` [Example 20, 2-[4-(4-[1,2,3]Triazol-1-yl-butyl)-phenoxymethyl]-oxazole-4-carboxylic acid (3-fluoro-2-methyl-phenyl)-amide], 500 to 3000 nM; under `O=C(Nc1nc(COc2ccc(CCCCn3ccnn3)cc2)cs1)c1cccc(C(F)(F)F)c1` [Example 52-2, N-{4-[4-(4-[1,2,3]Triazol-1-yl-butyl)-phenoxymethyl]-thiazol-2-yl}-3-trifluoromethyl-benzamide], 500 to 3000 nM.

Molecule `O=C(Nc1ccc(SC(F)F)cc1)c1coc(COc2ccc(CCCCn3ccnn3)cc2)n1` [Example 8, 2-[4-(4-[1,2,3]Triazol-1-yl-butyl)-phenoxymethyl]-oxazole-4-carboxylic acid (4-difluoromethylsulfanyl-phenyl)-amide] gave an IC50 of 5 to 500 nM. `O=C(Nc1ccccc1F)c1coc(COc2ccc(CCCCn3ccnn3)cc2)n1` [Example 33, 2-[4-(4-[1,2,3]Triazol-1-yl-butyl)-phenoxymethyl]-oxazole-4-carboxylic acid (2-fluoro-phenyl)-amide] gave an IC50 of 5 to 500 nM. In turn, `O=C(Nc1c(Cl)cccc1Cl)c1coc(COc2ccc(CCCCn3ccnn3)cc2)n1` [Example 44, 2-[4-(4-[1,2,3]Triazol-1-yl-butyl)-phenoxymethyl]-oxazole-4-carboxylic acid (2,6-dichloro-phenyl)-amide] registered an IC50 of 5 to 500 nM.

The molecule `Cc1cc(C(=O)Nc2nc(COc3ccc(CCCCn4ccnn4)cc3)cs2)ccc1F` [Example 52-26, 4-Fluoro-3-methyl-N-{4-[4-(4-[1,2,3]triazol-1-yl-butyl)-phenoxymethyl]-thiazol-2-yl}-benzamide] displayed an IC50 of 5 to 500 nM. Under `Cc1ccc(NC(=O)c2coc(COc3ccc(CCCCn4ccnn4)cc3)n2)cc1` [Example 28, 2-[4-(4-[1,2,3]Triazol-1-yl-butyl)-phenoxymethyl]-oxazole-4-carboxylic acid p-tolylamide] stands 500 to 3000 nM. On to `O=C(Nc1nc(COc2ccc(CCCCn3ccnn3)cc2)cs1)c1cc(F)cc(F)c1` [Example 52-23, 3,5-Difluoro-N-{4-[4-(4-[1,2,3]triazol-1-yl-butyl)-phenoxymethyl]-thiazol-2-yl}-benzamide], for which the IC50 was in the range of 5 to 500 nM. `Cc1cc(OCc2nc(C(=O)Nc3ccc(C(F)(F)F)cc3)co2)ccc1CCCCn1ccnn1` [Example 46, 2-[3-Methyl-4-(4-[1,2,3]triazol-1-yl-butyl)-phenoxymethyl]-oxazole-4-carboxylic acid (4-trifluoromethyl-phenyl)-amide] came in with an IC50 of 5 to 500 nM. Under `O=C(Nc1nc(COc2ccc(CCCCn3ccnn3)cc2)cs1)c1cc(F)ccc1F` [Example 52-15, 2,5-Difluoro-N-{4-[4-(4-[1,2,3]triazol-1-yl-butyl)-phenoxymethyl]-thiazol-2-yl}-benzamide] stands 5 to 500 nM; under `O=C(Nc1nc(COc2ccc(CCCCn3ccnn3)cc2)cs1)c1ccc([N+](=O)[O-])cc1` [Example 52-1, 4-Nitro-N-{4-[4-(4-[1,2,3]triazol-1-yl-butyl)-phenoxymethyl]-thiazol-2-yl}-benzamide], 5 to 500 nM.

`O=C(Nc1ccc(Cl)c(C(F)(F)F)c1)c1coc(COc2ccc(CCCCn3ccnn3)cc2)n1` [Example 27, 2-[4-(4-[1,2,3]Triazol-1-yl-butyl)-phenoxymethyl]-oxazole-4-carboxylic acid (4-chloro-3-trifluoromethyl-phenyl)-amide] returned an IC50 of 5 to 500 nM.

Regarding `O=C(Nc1ccc(C(F)(F)F)cc1[N+](=O)[O-])c1coc(COc2ccc(CCCCn3ccnn3)cc2)n1` [Example 4, 2-[4-(4-[1,2,3]Triazol-1-yl-butyl)-phenoxymethyl]-oxazole-4-carboxylic acid (2-nitro-4-trifluoromethyl-phenyl)-amide], the IC50 came out at 127 nM. Under `O=C(Nc1cc(F)cc(F)c1)c1coc(COc2ccc(CCCCn3ccnn3)cc2)n1` [Example 5, 2-[4-(4-[1,2,3]Triazol-1-yl-butyl)-phenoxymethyl]-oxazole-4-carboxylic acid (3,5-difluoro-phenyl)-amide] stands 5 to 500 nM; under `O=C(Nc1ccc(F)c([N+](=O)[O-])c1)c1coc(COc2ccc(CCCCn3ccnn3)cc2)n1` [Example 21, 2-[4-(4-[1,2,3]Triazol-1-yl-butyl)-phenoxymethyl]-oxazole-4-carboxylic acid (4-fluoro-3-nitro-phenyl)-amide], 5 to 500 nM. In turn, `O=C(Nc1ccc(Cl)cc1)c1csc(COc2ccc(CCCCn3ccnn3)cc2)n1` [Example 42, 2-[4-(4-[1,2,3]Triazol-1-yl-butyl)-phenoxymethyl]-thiazole-4-carboxylic acid (4-chloro-phenyl)-amide] yielded a 50% inhibitory concentration (IC50) of 5 to 500 nM. Under `O=C(Nc1nc(COc2ccc(CCCCn3ccnn3)cc2)cs1)c1ccccc1Cl` [Example 52-16, 2-Chloro-N-{4-[4-(4-[1,2,3]triazol-1-yl-butyl)-phenoxymethyl]-thiazol-2-yl}-benzamide] stands 500 to 3000 nM; under `O=C(Nc1nc(COc2ccc(CCCCn3ccnn3)cc2)cs1)c1ccc(OC(F)F)cc1` [Example 52-22, 4-Difluoromethoxy-N-{4-[4-(4-[1,2,3]triazol-1-yl-butyl)-phenoxymethyl]-thiazol-2-yl}-benzamide], 5 to 500 nM. Under `Cc1ccc(C(=O)Nc2nc(COc3ccc(CCCCn4ccnn4)cc3)cs2)cc1` [Example 52-14, 4-Methyl-N-{4-[4-(4-[1,2,3]triazol-1-yl-butyl)-phenoxymethyl]-thiazol-2-yl}-benzamide] stands 5 to 500 nM.
